Laboratory results taken from US12310975B2, “Modulators of BCL6 proteolysis and associated methods of use” (Arvinas Operations, Inc., priority 2019, dated 2025).

These compounds were tested against BCL6 (Homo sapiens (Human), UniProt P41182) (assay: Immunofluorescence high content imaging of BCL6 degradation in T47D cells). Conditions: class symbols A-D, read-out: EC50 (nM)*.
Assay type: cell-based
Outline: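 T47D, 3 d compound exposure, 11-pt 3-fold series, top 0.1 or 1 μM final. Fix 4% PFA, Triton permeabilize, anti-BCL6 primary overnight 4 °C, Alexa-488 secondary. High-content imaging 10×, 4 fields/well, top-hat smoothing.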

Compound	DC50 [nM]
CNC(=O)COc1cc2cc(Nc3nc(N4CCC(c5ccc(OCCCOCCCOCCOc6ccc7c(c6)CN(C6CCC(=O)NC6=O)C7=O)cc5)CC4)ncc3Cl)ccc2n(C)c1=O (centres unmarked) [compound 125, 2-((6-((5-chloro-2-(4-(4-(3-(3-(2-((2-(2,6-dioxopiperidin-3-yl)-1-oxoisoindolin-5-yl)oxy)ethoxy)propoxy)propoxy)phenyl)piperidin-1-yl)pyrimidin-4-yl)amino)-1-methyl-2-oxo-1,2-dihydroquinolin-3-yl)oxy)-N-methylacetamide]	> 100
CNC(=O)COc1cc2cc(Nc3nc(N4CCC(OCCOCCOCCOCCc5cccc(Oc6ccc7c(c6)CN(C6CCC(=O)NC6=O)C7=O)c5)CC4)ncc3Cl)ccc2n(C)c1=O (centres unmarked) [compound 126, 2-((6-((5-chloro-2-(4-(2-(2-(2-(3-((2-(2,6-dioxopiperidin-3-yl)-1-oxoisoindolin-5-yl)oxy)phenethoxy)ethoxy)ethoxy)ethoxy)piperidin-1-yl)pyrimidin-4-yl)amino)-1-methyl-2-oxo-1,2-dihydroquinolin-3-yl)oxy)-N-methylacetamide]	> 100
CNC(=O)COc1cc2cc(Nc3nc(N4CCC(c5cn(CCOCCOCCOCCOc6ccc7c(c6)C(=O)N(C6CCC(=O)NC6=O)C7=O)nn5)CC4)ncc3Cl)ccc2n(C)c1=O (centres unmarked) [compound 129, 2-((6-((5-chloro-2-(4-(1-(2-(2-(2-(2-((2-(2,6-dioxopiperidin-3-yl)-1,3-dioxoisoindolin-5-yl)oxy)ethoxy)ethoxy)ethoxy)ethyl)-1H-1,2,3-triazol-4-yl)piperidin-1-yl)pyrimidin-4-yl)amino)-1-methyl-2-oxo-1,2-dihydroquinolin-3-yl)oxy)-N-methylacetamide]	> 100
CNC(=O)COc1cc2cc(Nc3nc(N4CCC(Cc5cn(CCOCCOCCOc6ccc7c(c6)C(=O)N(C6CCC(=O)NC6=O)C7=O)nn5)CC4)ncc3Cl)ccc2n(C)c1=O (centres unmarked) [compound 130, 2-((6-((5-chloro-2-(4-((1-(2-(2-(2-((2-(2,6-dioxopiperidin-3-yl)-1,3-dioxoisoindolin-5-yl)oxy)ethoxy)ethoxy)ethyl)-1H-1,2,3-triazol-4-yl)methyl)piperidin-1-yl)pyrimidin-4-yl)amino)-1-methyl-2-oxo-1,2-dihydroquinolin-3-yl)oxy)-N-methylacetamide]	> 100
CNC(=O)COc1cc2cc(Nc3nc(N4CCC(Cc5cn(CCOCCOCCOCCOc6ccc7c(c6)C(=O)N(C6CCC(=O)NC6=O)C7=O)nn5)CC4)ncc3Cl)ccc2n(C)c1=O (centres unmarked) [compound 131, 2-((6-((5-chloro-2-(4-((1-(2-(2-(2-(2-((2-(2,6-dioxopiperidin-3-yl)-1,3-dioxoisoindolin-5-yl)oxy)ethoxy)ethoxy)ethoxy)ethyl)-1H-1,2,3-triazol-4-yl)methyl)piperidin-1-yl)pyrimidin-4-yl)amino)-1-methyl-2-oxo-1,2-dihydroquinolin-3-yl)oxy)-N-methylacetamide]	> 100
CNC(=O)COc1cc2cc(Nc3nc(N4CCC(Cc5cn(CCOCCOCCOCCOCCOc6ccc7c(c6)C(=O)N(C6CCC(=O)NC6=O)C7=O)nn5)CC4)ncc3Cl)ccc2n(C)c1=O (centres unmarked) [compound 132, 2-((6-((5-chloro-2-(4-((1-(14-((2-(2,6-dioxopiperidin-3-yl)-1,3-dioxoisoindolin-5-yl)oxy)-3,6,9,12-tetraoxatetradecyl)-1H-1,2,3-triazol-4-yl)methyl)piperidin-1-yl)pyrimidin-4-yl)amino)-1-methyl-2-oxo-1,2-dihydroquinolin-3-yl)oxy)-N-methylacetamide]	> 100
CNC(=O)COc1cc2cc(Nc3nc(N4CCC(OCCOCCOCCOCc5ccc(Oc6ccc7c(c6)CN(C6CCC(=O)NC6=O)C7=O)cc5)CC4)ncc3Cl)ccc2n(C)c1=O (centres unmarked) [compound 135, 2-((6-((5-chloro-2-(4-(2-(2-(2-((4-((2-(2,6-dioxopiperidin-3-yl)-1-oxoisoindolin-5-yl)oxy)benzyl)oxy)ethoxy)ethoxy)ethoxy)piperidin-1-yl)pyrimidin-4-yl)amino)-1-methyl-2-oxo-1,2-dihydroquinolin-3-yl)oxy)-N-methylacetamide]	> 100
CNC(=O)COc1cc2cc(Nc3nc(N4CCC(OCc5ccccc5OCCCCOCCOCCOc5ccc6c(c5)CN(C5CCC(=O)NC5=O)C6=O)CC4)ncc3Cl)ccc2n(C)c1=O (centres unmarked) [compound 136, 2-((6-((5-chloro-2-(4-((2-(4-(2-(2-((2-(2,6-dioxopiperidin-3-yl)-1-oxoisoindolin-5-yl)oxy)ethoxy)ethoxy)butoxy)benzyl)oxy)piperidin-1-yl)pyrimidin-4-yl)amino)-1-methyl-2-oxo-1,2-dihydroquinolin-3-yl)oxy)-N-methylacetamide]	> 100
CNC(=O)COc1cc2cc(Nc3nc(N4CCC(OCCCCOc5ccc6c(c5)CN(C5CCC(=O)NC5=O)C6=O)CC4)ncc3Cl)ccc2n(C)c1=O (centres unmarked) [compound 142, 2-((6-((5-chloro-2-(4-(4-((2-(2,6-dioxopiperidin-3-yl)-1-oxoisoindolin-5-yl)oxy)butoxy)piperidin-1-yl)pyrimidin-4-yl)amino)-1-methyl-2-oxo-1,2-dihydroquinolin-3-yl)oxy)-N-methylacetamide]	> 100
CNC(=O)COc1cc2cc(Nc3nc(N4CCC(OCCN5CCC(N6CCC(OCC#Cc7ccc8c(c7)CN(C7CCC(=O)NC7=O)C8=O)CC6)CC5)CC4)ncc3Cl)ccc2n(C)c1=O (centres unmarked) [compound 143, 2-((6-((5-chloro-2-(4-(2-(4-((3-(2-(2,6-dioxopiperidin-3-yl)-1-oxoisoindolin-5-yl)prop-2-yn-1-yl)oxy)-[1,4′-bipiperidin]-1′-yl)ethoxy)piperidin-1-yl)pyrimidin-4-yl)amino)-1-methyl-2-oxo-1,2-dihydroquinolin-3-yl)oxy)-N-methylacetamide]	10 to 50

Results, then the compound that gave them:

DC50 [nM]	Compound
50 to 100	CNC(=O)COc1cc2cc(Nc3nc(N4CCC(Cc5cn(CCOCCOCCOCCOCCOCC(=O)N[C@H](C(=O)N6C[C@H](O)C[C@H]6C(=O)N[C@@H](C)c6ccc(-c7scnc7C)cc6)C(C)(C)C)nn5)CC4)ncc3Cl)ccc2n(C)c1=O [compound 124, (2S,4R)-1-((S)-2-(tert-butyl)-20-(4-((1-(5-chloro-4-((1-methyl-3-(2-(methylamino)-2-oxoethoxy)-2-oxo-1,2-dihydroquinolin-6-yl)amino)pyrimidin-2-yl)piperidin-4-yl)methyl)-1H-1,2,3-triazol-1-yl)-4-oxo-6,9,12,15,18-pentaoxa-3-azaicosanoyl)-4-hydroxy-N-((S)-1-(4-(4-methylthiazol-5-yl)phenyl)ethyl)pyrrolidine-2-carboxamide]
> 100	CNC(=O)COc1cc2cc(Nc3nc(N4CCC(Cc5cn(CCOCCOCC(=O)N[C@H](C(=O)N6C[C@H](O)C[C@H]6C(=O)N[C@@H](C)c6ccc(-c7scnc7C)cc6)C(C)(C)C)nn5)CC4)ncc3Cl)ccc2n(C)c1=O [compound 133, (2S,4R)-1-((S)-2-(2-(2-(2-(4-((1-(5-chloro-4-((1-methyl-3-(2-(methylamino)-2-oxoethoxy)-2-oxo-1,2-dihydroquinolin-6-yl)amino)pyrimidin-2-yl)piperidin-4-yl)methyl)-1H-1,2,3-triazol-1-yl)ethoxy)ethoxy)acetamido)-3,3-dimethylbutanoyl)-4-hydroxy-N-((S)-1-(4-(4-methylthiazol-5-yl)phenyl)ethyl)pyrrolidine-2-carboxamide]
> 100	CNC(=O)COc1cc2cc(Nc3nc(N4CCC(OCCOCCOCCOCCOc5ccccc5Oc5ccc6c(c5)CN(C5CCC(=O)NC5=O)C6=O)CC4)ncc3Cl)ccc2n(C)c1=O (centres unmarked) [compound 134, 2-((6-((5-chloro-2-(4-(2-(2-(2-(2-(2-((2-(2,6-dioxopiperidin-3-yl)-1-oxoisoindolin-5-yl)oxy)phenoxy)ethoxy)ethoxy)ethoxy)ethoxy)piperidin-1-yl)pyrimidin-4-yl)amino)-1-methyl-2-oxo-1,2-dihydroquinolin-3-yl)oxy)-N-methylacetamide]
50 to 100	CNC(=O)COc1cc2cc(Nc3nc(N4CCC(OCCCOc5ccc6c(c5)CN(C5CCC(=O)NC5=O)C6=O)CC4)ncc3Cl)ccc2n(C)c1=O (centres unmarked) [compound 139, 2-((6-((5-chloro-2-(4-(3-((2-(2,6-dioxopiperidin-3-yl)-1-oxoisoindolin-5-yl)oxy)propoxy)piperidin-1-yl)pyrimidin-4-yl)amino)-1-methyl-2-oxo-1,2-dihydroquinolin-3-yl)oxy)-N-methylacetamide]
> 100	CNC(=O)COc1cc2cc(Nc3nc(N4CCC(OCCCOCCCOc5ccc6c(c5)CN(C5CCC(=O)NC5=O)C6=O)CC4)ncc3Cl)ccc2n(C)c1=O (centres unmarked) [compound 140, 2-((6-((5-chloro-2-(4-(3-(3-((2-(2,6-dioxopiperidin-3-yl)-1-oxoisoindolin-5-yl)oxy)propoxy)propoxy)piperidin-1-yl)pyrimidin-4-yl)amino)-1-methyl-2-oxo-1,2-dihydroquinolin-3-yl)oxy)-N-methylacetamide]
> 100	CNC(=O)COc1cc2cc(Nc3nc(N4CCC(OCCCOc5cc(-c6scnc6C)ccc5CNC(=O)[C@@H]5C[C@@H](O)CN5C(=O)C(c5cc(C)no5)C(C)C)CC4)ncc3Cl)ccc2n(C)c1=O (stereo partly drawn) [compound 141, (2S,4R)-N-(2-(3-((1-(5-chloro-4-((1-methyl-3-(2-(methylamino)-2-oxoethoxy)-2-oxo-1,2-dihydroquinolin-6-yl)amino)pyrimidin-2-yl)piperidin-4-yl)oxy)propoxy)-4-(4-methylthiazol-5-yl)benzyl)-4-hydroxy-1-(3-methyl-2-(3-methylisoxazol-5-yl)butanoyl)pyrrolidine-2-carboxamide]
> 100	CNC(=O)COc1cc2cc(Nc3nc(N4CCC(OCCCOCCCOc5cc(-c6scnc6C)ccc5CNC(=O)[C@@H]5C[C@@H](O)CN5C(=O)C(c5cc(C)no5)C(C)C)CC4)ncc3Cl)ccc2n(C)c1=O (stereo partly drawn) [compound 144, (2S,4R)-N-(2-(3-(3-((1-(5-chloro-4-((1-methyl-3-(2-(methylamino)-2-oxoethoxy)-2-oxo-1,2-dihydroquinolin-6-yl)amino)pyrimidin-2-yl)piperidin-4-yl)oxy)propoxy)propoxy)-4-(4-methylthiazol-5-yl)benzyl)-4-hydroxy-1-(3-methyl-2-(3-methylisoxazol-5-yl)butanoyl)pyrrolidine-2-carboxamide]
